Reference: PMC11255275, “Structural insights into the triple agonism at GLP-1R, GIPR and GCGR manifested by retatrutide” (Cell Discovery, 2024)
Read-outs that look alike come from different tables or passages of the source.

Tests used:
[1] = target: T1, GLP-1R mutants (Homo sapiens, UniProt P43220, E364A); assay: cAMP accumulation, single-point mutated GLP-1R; format: cell-based; settings: GLP-1R E364(6.53b)A, HEK-293T, 40 min, TR-FRET, mean ± S.E.M., n at least 3
T1 construct: expressed in transfected cells; host or cells: HEK-293T
T1 sequence (P43220 24-463 E364A): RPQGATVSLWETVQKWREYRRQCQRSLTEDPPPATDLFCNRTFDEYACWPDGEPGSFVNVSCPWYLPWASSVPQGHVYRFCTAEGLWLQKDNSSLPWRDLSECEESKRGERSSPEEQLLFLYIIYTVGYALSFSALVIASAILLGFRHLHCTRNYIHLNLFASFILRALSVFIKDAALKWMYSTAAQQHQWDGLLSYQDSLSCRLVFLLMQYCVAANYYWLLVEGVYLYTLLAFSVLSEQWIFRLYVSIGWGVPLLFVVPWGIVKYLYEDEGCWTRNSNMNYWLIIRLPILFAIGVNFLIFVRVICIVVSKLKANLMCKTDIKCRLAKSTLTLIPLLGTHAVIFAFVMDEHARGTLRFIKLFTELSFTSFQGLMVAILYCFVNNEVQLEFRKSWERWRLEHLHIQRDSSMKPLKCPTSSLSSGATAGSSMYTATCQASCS
Protocol: (§1) HEK-293T cells were maintained at 37°C in 5% CO2 incubator and seeded onto 6-well cell […]
(§2) culture plates before transfection. After overnight culture, the cells were transiently transfected […]
(§3) with various constructs using Lipofectamine 2000 transfection reagent (Invitrogen). After 24 h, […]
(§4) the transfected cells were seeded onto 384-microtiter plates at a density of 3,000 cells per well […]
(§5) in stimulation buffer (HBSS supplemented with 5 mM HEPES, 0.1% (w/v) casein and 0.5 mM […]
(§6) 3-isobutyl-1-methylxanthine). Different concentrations of retatrutide in stimulation buffer were […]
(§7) added, and the stimulation lasted for 40 min. The reaction was stopped by addition of cAMP […]
(§8) detection buffer containing Eu-cAMP tracer and ULight-anti-cAMP. Plates were then incubated for […]
(§9) 60 min at RT. Time-resolved FRET signals were measured at 620 nm and 665 nm, respectively, by […]
(§10) an EnVision multilabel plate reader (PerkinElmer). Data were analyzed in GraphPad PRISM 9.5 […]
(§11) and all values were normalized to that of the wild-type (WT).
(§12) Supplementary Fig. 5 Effects of receptor mutation on retatrutide-induced cAMP […]
(§13) accumulation. a-c, Signaling profiles of GLP-1R (a), GIPR (b) and GCGR (c) mutants. cAMP […]
(§14) accumulation was measured in wild-type (WT) and single-point mutated GLP-1R, GIPR or […]
(§15) GCGR expressing HEK-293T cells. cAMP levels were normalized to the maximum response […]
(§16) of the WT and dose-response curves were analyzed using a three-parameter logistic equation.
(§17) Data were generated and graphed as means ± S.E.M. of at least three independent experiments performed in quadruplicate.
(§18) (1 picture or pasted object on this page, not shown here)
(§19) Supplementary Ta b l e S 5 Effects of the ligand-binding pocket residue mutation on retatrutide- […]
(§20) induced cAMP signaling at GLP-1R, GIPR or GCGR. […]
(§21) cAMP levels were normalized to the maximum response of the wild-type (WT) and dose-response […]
(§22) curves were analyzed using a three-parameter logistic equation to obtain pEC50 and Emax values. The […]
(§23) experiments were carried out independently at least three times. Data shown are means ± S.E.M. One- […]
(§24) way ANOVA was used to determine statistical difference. N.D., values that could not be determined due […]
(§25) to incomplete curve fits. *P< 0.05, **P< 0.01, ***P< 0.001 and ****P<0.0001.

[2] = target: T2, GLP-1R mutants (Homo sapiens, UniProt P43220, R299A); assay: cAMP accumulation, single-point mutated GLP-1R; format: cell-based; settings: GLP-1R R299(ECL2)A, HEK-293T, 40 min, TR-FRET, mean ± S.E.M., n at least 3
T2 construct: expressed in transfected cells; host or cells: HEK-293T
T2 sequence (P43220 24-463 R299A): as the sequence (P43220 24-463 E364A) above, with R276A, A341E counted along it
Protocol: as §1, §2, §3, §4, §5, §6, §7, §8, §9, §10, §11, §12, §13, §14, §15, §16, §17, §18, §19, §20, §21, §22, §23, §24, §25

[3] = target: T3, GLP-1R mutants (Homo sapiens, UniProt P43220, W214A); assay: cAMP accumulation, single-point mutated GLP-1R; format: cell-based; settings: GLP-1R W214(ECL1)A; HEK-293T, 40 min, TR-FRET; mean ± S.E.M., n at least 3
T3 construct: expressed in transfected cells; host or cells: HEK-293T
T3 sequence (P43220 24-463 W214A): as the sequence (P43220 24-463 E364A) above, with W191A, A341E counted along it
Protocol: as §1, §2, §3, §4, §5, §6, §7, §8, §9, §10, §11, §12, §13, §14, §15, §16, §17, §18, §19, §20, §21, §22, §23, §24, §25

[4] = target: T4, GLP-1R mutants (Homo sapiens, UniProt P43220, W39A); assay: cAMP accumulation, single-point mutated GLP-1R; format: cell-based; settings: GLP-1R W39(ECD)A, HEK-293T, 40 min, TR-FRET, mean ± S.E.M., n at least 3
T4 construct: expressed in transfected cells; host or cells: HEK-293T
T4 sequence (P43220 24-463 W39A): as the sequence (P43220 24-463 E364A) above, with W16A, A341E counted along it
Protocol: as §1, §2, §3, §4, §5, §6, §7, §8, §9, §10, §11, §12, §13, §14, §15, §16, §17, §18, §19, §20, §21, §22, §23, §24, §25

[5] = target: T5, GLP-1R mutants (Homo sapiens, UniProt P43220, Y145Q); assay: cAMP accumulation, single-point mutated GLP-1R; format: cell-based; settings: GLP-1R Y145(1.40b)Q, HEK-293T, 40 min, TR-FRET, mean ± S.E.M., n at least 3
T5 construct: expressed in transfected cells; host or cells: HEK-293T
T5 sequence (P43220 24-463 Y145Q): as the sequence (P43220 24-463 E364A) above, with Y122Q, A341E counted along it
Protocol: as §1, §2, §3, §4, §5, §6, §7, §8, §9, §10, §11, §12, §13, §14, §15, §16, §17, §18, §19, §20, §21, §22, §23, §24, §25

[6] = target: T6, GLP-1R mutants (Homo sapiens, UniProt P43220, Y205A); assay: cAMP accumulation, single-point mutated GLP-1R; format: cell-based; settings: GLP-1R Y205(2.75b)A, HEK-293T, 40 min, TR-FRET, mean ± S.E.M., n at least 3
T6 construct: expressed in transfected cells; host or cells: HEK-293T
T6 sequence (P43220 24-463 Y205A): as the sequence (P43220 24-463 E364A) above, with Y182A, A341E counted along it
Protocol: as §1, §2, §3, §4, §5, §6, §7, §8, §9, §10, §11, §12, §13, §14, §15, §16, §17, §18, §19, §20, §21, §22, §23, §24, §25

[7] = tested on: GLP-1R mutants; assay: cAMP accumulation, single-point mutated GLP-1R; format: cell-based, human; settings: GLP-1R E138(1.33b)R, relative to WT
Protocol: as §1, §2, §3, §4, §5, §6, §7, §8, §9, §10, §11, §12, §13, §14, §15, §16, §17, §18, §19, §20, §21, §22, §23, §24, §25

[8] = cited from earlier work; for decrease in body weight (up to): single dose, ref Coskun T et al (supplement ref 17)
Excerpt: For humans, events were mild, such as 50 1 ascending (PMID: 4 months ...

[9] = cited from earlier work; for average weight loss: 12 mg dose group
Excerpt: (§26) The most successful treatments currently available include glucagon-like peptide-1 (GLP-1) receptor agonists (GLP-1RAs), exemplified by semaglutide (approved in 2017, $19.9 billion sales in 2023)[3] and tirzepatide (approved in 2022, $5.3 billion sales in 2023)[4]. […] For humans, events were mild, such as 50 1 ascending (PMID: 4 months ...

[10] = tested on: C57/Bl6 diet-induced obese (DIO) mice; settings: cited from earlier work
Excerpt: as §26

[11] = 12 mg, ref Jastreboff AM et al (supplement ref 19)
[12] = ref Rosenstock J et al (supplement ref 20)
[13] = C57/Bl6 DIO mice, ref Coskun T et al (supplement ref 17)

## CC[C@H](C)[C@H](NC(=O)[C@H](Cc1ccccc1)NC(=O)[C@H](C)NC(=O)C(C)(C)NC(=O)[C@H](CCC(N)=O)NC(=O)[C@H](C)NC(=O)[C@H](CCCCNC(=O)COCCOCCNC(=O)CC[C@H](NC(=O)CCCCCCCCCCCCCCCCCCC(=O)O)C(=O)O)NC(=O)[C@H](CCCCN)NC(=O)[C@H](CC(=O)O)NC(=O)[C@H](CC(C)C)NC(=O)[C@](C)(CC(C)C)NC(=O)[C@@H](NC(=O)[C@H](CO)NC(=O)[C@H](Cc1ccc(O)cc1)NC(=O)[C@H](CC(=O)O)NC(=O)[C@H](CO)NC(=O)[C@@H](NC(=O)[C@H](Cc1ccccc1)NC(=O)[C@@H](NC(=O)CNC(=O)[C@H](CCC(N)=O)NC(=O)C(C)(C)NC(=O)[C@@H](N)Cc1ccc(O)cc1)[C@@H](C)O)[C@@H](C)O)[C@@H](C)CC)C(=O)N[C@@H](CCC(=O)O)C(=O)N[C@@H](Cc1ccc(O)cc1)C(=O)N[C@@H](CC(C)C)C(=O)N[C@@H](CC(C)C)C(=O)N[C@@H](CCC(=O)O)C(=O)NCC(=O)NCC(=O)N1CCC[C@H]1C(=O)N[C@@H](CO)C(=O)N[C@@H](CO)C(=O)NCC(=O)N[C@@H](C)C(=O)N1CCC[C@H]1C(=O)N1CCC[C@H]1C(=O)N1CCC[C@H]1C(=O)N[C@@H](CO)C(N)=O [retatrutide]
[1]
  Emax ± S.E.M. (% WT): 98.84 ± 4.77 % WT
[1]; ***P < 0.001
  EC50: 0.0407 nM
[2]
  Emax ± S.E.M. (% WT): 101.97 ± 3.92 % WT
[2]; ***P < 0.001
  EC50: 0.0417 nM
[3]
  EC50: 0.00562 nM
  Emax ± S.E.M. (% WT): 100.98 ± 3.27 % WT
[4]
  Emax ± S.E.M. (% WT): 101.39 ± 3.58 % WT
[4]; **P < 0.01
  EC50: 0.0389 nM
[5]; ****P < 0.0001
  EC50: 0.355 nM
[5]; ***P < 0.001
  Emax ± S.E.M. (% WT): 73.89 ± 5.95 % WT
[6]
  Emax ± S.E.M. (% WT): 101.35 ± 4.70 % WT
[6]; **P < 0.01
  EC50: 0.0389 nM
[7]
  change of retatrutide potency by mutation: modestly increased
[8]; 3 mg group, ref Urva S et al (supplement ref 18)
  body weight reduction: –4.71 kg
[8]; 4.5 mg
  decrease in body weight (up to): –2.93 kg
[8]; 6 mg
  decrease in body weight (up to): –3.52 kg
[8]; 3/6 mg group, ref Urva S et al (supplement ref 18)
  body weight reduction: –7.83 kg
[8]; compared to placebo, ref Urva S et al (supplement ref 18)
  fasting and postprandial plasma glucose and HbA1c: clinically decreases
[8]; human, in vivo
  severity of most treatment-related adverse events: mild
[8]; ref Urva S et al (supplement ref 18)
  glycemic control: showed glycemic control efficacy
[9]; 8 mg or 12 mg, ref Jastreboff AM et al (supplement ref 19)
  participants with weight reduction of 5% or more: All the participants
[9]; [11]
  participants who lost 20% or more of baseline weight: nearly two thirds
  participants who lost 25% or more of baseline weight: nearly half
  participants who lost 30% or more of baseline weight: a quarter
[9]; 24 weeks
  average weight loss: 17.5%
[9]; 24 weeks, 12-mg group, placebo –1.6%, ref Jastreboff AM et al (supplement ref 19)
  least-squares mean percentage change in body weight: –17.5%
[9]; 24 weeks, combined 4-mg group, placebo –1.6%, ref Jastreboff AM et al (supplement ref 19)
  least-squares mean percentage change in body weight: –12.9%
[9]; 24 weeks, combined 8-mg group, placebo –1.6%, ref Jastreboff AM et al (supplement ref 19)
  least-squares mean percentage change in body weight: –17.3%
[9]; 36 weeks, ref Rosenstock J et al (supplement ref 20)
  participants who lost at least 15% of body weight (up to): Up to 63%
[9]; 48 weeks
  average weight loss: 24.2%
[9]; 48 weeks, 12-mg group, placebo –2.1%, ref Jastreboff AM et al (supplement ref 19)
  least-squares mean percentage change in body weight: –24.2%
[9]; 48 weeks, combined 4-mg group, placebo –2.1%, ref Jastreboff AM et al (supplement ref 19)
  least-squares mean percentage change in body weight: –17.1%
[9]; 48 weeks, combined 8-mg group, placebo –2.1%, ref Jastreboff AM et al (supplement ref 19)
  least-squares mean percentage change in body weight: –22.8%
[9]; dose-dependent, ref Rosenstock J et al (supplement ref 20)
  blood pressure: reduction of blood pressure
[9]; in vivo
  frequency of gastrointestinal events by starting dose: occurred more frequently
  heart rate: Dose-dependent increases
  mitigation of gastrointestinal adverse events by lower starting dose: partially mitigated
  participants with gastrointestinal adverse events: 35%
  safety profile: safety profile comparable to certain approved GLP-1RAs
  severity of most common (gastrointestinal) adverse events: mild to moderate in severity
[9]; phase 2, type 2 diabetes
  glycemic control: significant improvements in glycemic control
  weight reduction: substantial weight reduction
[9]; [12]
  glycemic control: clinically improvements in glycemic control
  non-HDL cholesterol: reduction
  reduction of triglycerides: ~ 35%
[10]; [13]
  ED50, body weight reduction: 4.73 nmol/kg
  body weight and calorie intake: dose-dependently reduced
[10]; obese mice, due to an increased energy expenditure through GCGR activation
  body weight loss compared with tirzepatide: greater body weight losses in obese mice than tirzepatide
